# Test results: patent publication US10400064B2, “Glycerol-based polycarbonates” (TRUSTEES OF BOSTON UNIVERSITY, priority 2014, dated 2019)
# Tested on: A549 cells
# Test: In vitro toxicity analysis, viability after 3 days of treatment
# Assay type: cell-based
# Settings: incubated with treatment for 3 days
# Experimental: Scale bar=200 nm. […] Cells were incubated with treatment for 5 days, and viability was assessed. […] Right lower panel: In vitro toxicity analysis of PGC-Cisplatin and cisplatin alone in A549 cells. Cells were incubated with treatment for 3 days, and viability was assessed.
# PGC-Pax and PGC-Cisplatin nanoparticles are synthesized using a miniemulsion technique. Briefly, the polymer is added to dichloromethane, and the organic phase is dispersed via sonication into an aqueous phase, containing sodium dodecyl sulfate as a surfactant.
smiles,measurement,value
N.N.[Cl][Pt][Cl] [cisplatin],IC50,0.9273 µg/mL
